For ten molecules, pest or weed control, inhibition of growth and melting point results are on record in US9695123B2, “Microbiocides” (Syngenta Participations AG, priority 2013, dated 2017).

Data set [1] concerns Blumeria graminis f. Sp. Tritici (Erysiphe graminis f. Sp. Tritici). Kind of data set: Blumeria graminis f. sp. tritici / wheat / leaf disc preventative (powdery mildew on wheat). The format is in vivo. The settings on record: foliar, wheat leaf disc cv. Kanzler, inoculated 1 day after application, assessed 6-8 days after application, read-out: disease control. How it is done: Fungicidal Activity Against Blumeria graminis f. Sp. Tritici (Erysiphe graminis f. Sp. Tritici)/Wheat/Leaf Disc Preventative (Powdery Mildew on Wheat)
Wheat leaf segments cv. Kanzler were placed on agar in a multiwell plate (24-well format) and sprayed with the formulated test compound diluted in water. The leaf disks were inoculated by shaking powdery mildew infected plants above the test plates 1 day after application. The inoculated leaf disks were incubated at 20° C. and 60% rh under a light regime of 24 h darkness followed by 12 h light/12 h darkness in a climate chamber and the activity of a compound was assessed as percent disease control compared to untreated when an appropriate level of disease damage appears on untreated check leaf segments (6-8 days after application).

The test system of data set [2] is Puccinia recondita f. Sp. Tritici. The data set can be described thus: Puccinia recondita f. sp. tritici / wheat / leaf disc curative (brown rust). The format is in vivo. To be noted: foliar, 192 h, applied one day after inoculation, assessed 8 dpi, read-out: disease control. How it is done:
Fungicidal Activity Against Puccinia recondita f. Sp. Tritici/Wheat/Leaf Disc Curative (Brown Rust) Wheat leaf segments are placed on agar in multiwell plates (24-well format). The leaf disks are then inoculated with a spore suspension of the fungus. One day after inoculation the test solution is applied. After appropriate incubation the activity of a compound is assessed 8 dpi (days after inoculation) as curative fungicidal activity. Dose range: 200-22 ppm.

The subject of data set [3] is Botryotinia fuckeliana (Botrytis cinerea). The data set can be described thus: Botryotinia fuckeliana (Botrytis cinerea) / liquid culture (gray mould). The format is cell-based. The settings on record: 72 h, liquid culture (Vogels broth), inhibition of growth photometrically 3-4 days after application, read-out: disease control. How it is done: Fungicidal Activity Against Botryotinia fuckeliana (Botrytis cinerea)/Liquid Culture (Gray Mould) Conidia of the fungus from cryogenic storage were directly mixed into nutrient broth (Vogels broth). After placing a (DMSO) solution of test compound into a microtiter plate (96-well format), the nutrient broth containing the fungal spores was added. The test plates were incubated at 24° C. and the inhibition of growth was determined photometrically 3-4 days after application.

In data set [4] the test system is Mycosphaerella arachidis (Cercospora arachidicola). Kind of data set: Mycosphaerella arachidis (Cercospora arachidicola) / liquid culture (early leaf spot). The settings on record: 96 h, liquid culture (PDB), inhibition of growth photometrically 4-5 days after application, read-out: disease control. The format is cell-based. How it is done: Fungicidal Activity Against Mycosphaerella arachidis (Cercospora arachidicola)/Liquid Culture (Early Leaf Spot) Conidia of the fungus from cryogenic storage were directly mixed into nutrient broth (PDB potato dextrose broth). After placing a (DMSO) solution of test compound into a microtiter plate (96-well format), the nutrient broth containing the fungal spores was added. The test plates were incubated at 24° C. and the inhibition of growth was determined photometrically 4-5 days after application.

Data set [5] deals with Mycosphaerella graminicola (Septoria tritici). Kind of data set: Mycosphaerella graminicola (Septoria tritici) / liquid culture (Septoria blotch). The settings on record: Zymoseptoria tritici, 96 h, liquid culture (PDB), inhibition of growth photometrically 4-5 days after application, read-out: disease control. In kind it is cell-based. How it is done: Fungicidal Activity Against Mycosphaerella graminicola (Septoria tritici)/Liquid Culture (Septoria Blotch) Conidia of the fungus from cryogenic storage were directly mixed into nutrient broth (PDB potato dextrose broth). After placing a (DMSO) solution of test compound into a microtiter plate (96-well format), the nutrient broth containing the fungal spores was added. The test plates were incubated at 24° C. and the inhibition of growth was determined photometrically 4-5 days after application.

Another data set has as its system Gaeumannomyces graminis. Kind of data set: Gaeumannomyces graminis / liquid culture (take-all of cereals). The format is cell-based. To be noted: 96 h, liquid culture (PDB), inhibition of growth photometrically 4-5 days after application, read-out: disease control. How it is done: Fungicidal Activity Against Gaeumannomyces graminis/Liquid Culture (Take-all of Cereals) Mycelial fragments of the fungus from cryogenic storage were directly mixed into nutrient broth (PDB potato dextrose broth). After placing a (DMSO) solution of test compound into a microtiter plate (96-well format), the nutrient broth containing the fungal spores is added. The test plates were incubated at 24° C. and the inhibition of growth was determined photometrically 4-5 days after application.

A further data set deals with Fusarium culmorum. The data set can be described thus: Fusarium culmorum / liquid culture (root rot). In kind it is cell-based. To be noted: liquid culture (PDB), inhibition of growth photometrically after 48 hrs, read-out: disease control. How it is done: Fungicidal Activity Against Fusarium culmorum/Liquid Culture (Root Rot)
Conidia of the fungus from cryogenic storage were directly mixed into nutrient broth (PDB potato dextrose broth). After placing a (DMSO) solution of the test compounds into a microtiter plate (96-well format) the nutrient broth containing the fungal spores was added. The test plates were incubated at 24 C and the inhibition of growth was determined photometrically after 48 hrs.

In data set [6] the test system is Puccinia recondite f. Sp. Tritici. The data set can be described thus: Puccinia recondita f. sp. tritici / wheat / leaf disc preventative (brown rust). In kind it is in vivo. To be noted: foliar, wheat leaf disc cv. Kanzler, inoculated 1 day after application, assessed 7-9 days after application, read-out: disease control. How it is done:
Fungicidal Activity Against Puccinia recondite f. Sp. Tritici/Wheat/Leaf Disc Preventative (Brown Rust) Wheat leaf segments cv. Kanzler were placed on agar in multiwell plates (24-well format) and sprayed with the formulated test compound diluted in water. The leaf disks were inoculated with a spore suspension of the fungus 1 day after application. The inoculated leaf segments were incubated at 19° C. and 75% rh under a light regime of 12 h light/12 h darkness in a climate cabinet and the activity of a compound was assessed as percent disease control compared to untreated when an appropriate level of disease damage appears in untreated check leaf segments (7-9 days after application).

On to `N#CC(Cc1cccnc1)c1ccc(C#CC2CC2)cc1` (centres unmarked) [Compound 1], for which the pest or weed control at 200 ppm in [1] and in data set [2] was no less than 80% each time. Besides, the inhibition of growth at 200 ppm (in data set [3]; in data set [4]; in [5]; with Gaeumannomyces graminis; with Fusarium culmorum) was no less than 80% each time.
Consider `N#CC(Cc1cncnc1)c1ccc(C#CC2CC2)cc1` (centres unmarked) [Compound 2], for which the pest or weed control at 200 ppm in data set [1], in data set [6] and in data set [2] was no less than 80% throughout. Besides, the inhibition of growth at 200 ppm (in data set [4]; in data set [5]; with Gaeumannomyces graminis; in the data set with Fusarium culmorum) was no less than 80% in each case.
Take `Cc1cncc(CC(C#N)c2ccc(C#CC3CC3)cc2)c1` (centres unmarked) [Compound 3]: the pest or weed control at 200 ppm in data set [1] is no less than 80%. The inhibition of growth at 200 ppm (in data set [3]; in data set [4]; in data set [5]; with Gaeumannomyces graminis; in the data set with Fusarium culmorum) was no less than 80% each time.
For the molecule `OC(Cn1ccnc1)c1ccc(C#CC2CC2)cc1Cl` (centres unmarked) [Compound 5], the pest or weed control at 200 ppm in [1], in [6] and in [2] was no less than 80% throughout. For the same molecule, the inhibition of growth at 200 ppm in data set [3] and in data set [4] was no less than 80% in each case.
In the case of `OC(Cn1ccnc1)(c1ccc(C#CC2CC2)cc1)C(F)(F)c1ccccn1` (centres unmarked) [Compound 6], the pest or weed control at 200 ppm in [1], in data set [6] and in data set [2] was no less than 80% in each case. Moreover, the inhibition of growth at 200 ppm (in [3]; in data set [4]; in [5]; with Gaeumannomyces graminis) was no less than 80% each time.
Regarding `OC(Cn1cncn1)(c1ccc(C#CC2CC2)cc1)C(F)(F)c1ccccn1` (centres unmarked) [Compound 7], the pest or weed control at 200 ppm in data set [1], in data set [6] and in [2] was no less than 80% each time. The inhibition of growth at 200 ppm (in data set [3]; in [4]; in data set [5]; in the data set on Gaeumannomyces graminis; in the data set with Fusarium culmorum) was no less than 80% throughout.
Regarding `N#CC(Cc1cccnc1)c1ccc(C#CC2CC2)cc1F` (centres unmarked) [Compound 10], the pest or weed control at 200 ppm in [1], in [6] and in [2] was no less than 80% throughout. Further, the inhibition of growth at 200 ppm (in data set [3]; in data set [4]; in [5]; with Gaeumannomyces graminis; with Fusarium culmorum) was no less than 80% throughout.
In general, melting point refers to the temperature of the solid-liquid transition. Molecule `CC(C)C#Cc1ccc(C(O)(Cn2cncn2)C(F)(F)c2ccc(Cl)cn2)cc1` (centres unmarked) [Compound 11] displayed a melting point of 128 to 132 °C. Besides, the pest or weed control at 200 ppm in data set [1] was no less than 80%. Also, the pest or weed control at 200 ppm in data set [6] is no less than 80%. Further, the pest or weed control at 200 ppm in data set [2] is no less than 80%. Further, the inhibition of growth at 200 ppm in data set [3] is no less than 80%. Besides, in [4], the inhibition of growth at 200 ppm is no less than 80%. In data set [5], the inhibition of growth at 200 ppm is no less than 80%. The inhibition of growth at 200 ppm in the data set on Gaeumannomyces graminis was no less than 80%. In the data set on Fusarium culmorum, the inhibition of growth at 200 ppm is no less than 80%.
`CCCC#Cc1ccc(C(O)(Cn2cncn2)C(F)(F)c2ccc(Cl)cn2)cc1` (centres unmarked) [Compound 12] returned a melting point of 124 to 128 °C. In addition, the pest or weed control at 200 ppm in data set [1] was no less than 80%. Moreover, in data set [6], the pest or weed control at 200 ppm was no less than 80%. In addition, in data set [2], the pest or weed control at 200 ppm was no less than 80%. The inhibition of growth at 200 ppm in [3] is no less than 80%. Moreover, the inhibition of growth at 200 ppm in [4] is no less than 80%. Moreover, in data set [5], the inhibition of growth at 200 ppm was no less than 80%. Besides, the inhibition of growth at 200 ppm in the data set on Gaeumannomyces graminis is no less than 80%. Also, in the data set on Fusarium culmorum, the inhibition of growth at 200 ppm was no less than 80%.
`OC(Cn1cncn1)(c1ccc(C#CC2CC2)cc1)C(F)(F)c1ccc(Cl)cn1` (centres unmarked) [Compound 13] had a melting point of 88 to 94 °C. In addition, the pest or weed control at 200 ppm in data set [1] is no less than 80%. The pest or weed control at 200 ppm in [6] is no less than 80%. In addition, the pest or weed control at 200 ppm in [2] is no less than 80%. The inhibition of growth at 200 ppm in data set [3] is no less than 80%. Moreover, the inhibition of growth at 200 ppm in data set [4] was no less than 80%. For the same molecule, in data set [5], the inhibition of growth at 200 ppm is no less than 80%. Also, in the data set on Fusarium culmorum, the inhibition of growth at 200 ppm is no less than 80%.
